Patent publication US20250135028A1, “TUNABLE POLYMERIC NANOPARTICLES FOR TARGETED AND SUSTAINED DELIVERY OF GLYCOPEPTIDE ANTIBIOTICS” (Insmed Incorporated, priority 2021, published 2025)

Key:
[1] = Pharmacokinetic study of oritavancin-loaded PNPs in rat osteomyelitis model (plasma and tibia, LC-MS/MS); assay type: in vivo; conditions: osteomyelitis rats, 6 mg/kg intravenous
Description: A rat model of bacterial osteomyelitis of the tibia was generated via intraosseous injection of MRSA ATCC 43300 at a target challenge dose of 7 log10 CFU of the bacteria per rat. Briefly, rats were anaesthetized by isoflurane and the infection was initiated via injection of the bacteria through the upper condyle of the right tibia into the cancellous bone marrow of a rat. The inoculation was made on the anterior surface of the tibia. The area was located by running a ½ inch 27-gauge needle against the skin, along the anterior crest of the tibia. The needle slipped over the tip of the tuberosity, which was located between the medial and lateral condyles. A rough depression could be felt with the tip of the needle. The patella tendon (silver in color) connected at this point. Once identified, the needle was pushed into the metaphysis using slight pressure and rotating motion. The needle was removed and replaced with a new ½ inch 27 gauge needle, and 30 μL of bacteria was inoculated into the bone marrow cavity. The needle was removed and the animal was allowed to recover from anesthesia.
Three weeks (21 days) after the initiation of the bacterial infection, the osteomyelitis rats were divided into three treatment groups, with five rats in each group. […] The concentrations of oritavancin in the plasma and tibia samples were quantified using LC-MS/MS.

[2] = Drug loading and encapsulation efficiency of drug loaded PNPs comprising pGlu(0.6C10)-PEG (HPLC); assay type: physicochemical; conditions: 5 mg drug
Description: To assess the ability of pGlu(0.6C10)-PEG to load positively charged antibiotics in the form of PNPs, we selected vancomycin and RV94 as the antibiotic drug payload in a first study (study 1) (Table 5), and additionally included oritavancin and RV40 as the antibiotic drug payload in a second study (study 2) (Table 6). The polymers we used for loading and encapsulating the antibiotics were PLA-PEG (A) (Nanosoft Polymers, SKU: 2693), pGlu-PEG (B) (Nanosoft Polymers, SKU: 2917), and pGlu(0.6C10)-PEG (C) (FIG. 10).
We prepared the drug loaded PNPs by using 20 mg of polymers and 5 mg of drug (FIG. 10). Specifically, polymers (20 mg) and drug (5 mg) were dissolve in 1 ml organic solvent mixture (DMSO: acetonitrile=1:1). The solution was injected into 20 ml deionized water stirred with a magnetic stirring bar. The nanoparticles were washed using Amicon filter (100k cut-off) twice and resuspended in deionized water. Drug loading in nanoparticle formulation was determined by HPLC with a WATERS™ T3 column. Acetonitrile/water was used as the mobile phase, and the wavelength of the UV detector was set at 281 nm.
Drug loading is equal to mass of drug (mg) after wash/(mass of drug (mg) after wash+mass of polymer input (i.e., 20 mg))*100%.
EE is equal to mass of drug (mg) after wash/mass of drug input (i.e., 5 mg)*100%.

[3] = Drug loading and encapsulation efficiency of drug loaded PNPs comprising pGlu(0.6C10) (HPLC); assay type: physicochemical; conditions: 2.5 mg drug
Description: To assess the ability of pGlu(0.6C10) to load positively charged antibiotics in the form of PNPs, we selected vancomycin, oritavancin, RV40 and RV94 as the drug payload. Vancomycin was chosen as a non-lipoglycopeptide control and the other three payloads were lipoglycopeptides. The polymers we used for loading and encapsulating the antibiotics were PLA(10K)-PEG(2K) (A) obtained from Nanosoft Polymers (Winston-Salem, NC, USA; SKU: 2693), pGlu (D) also obtained from Nanosoft Polymers (SKU: 10069), and pGlu(0.6C10) (E) (FIG. 4).
We prepared the drug loaded PNPs by using 10 mg of polymers and 2.5 mg of drug (FIG. 4). Specifically, polymers (10 mg) and drug (2.5 mg) were dissolved in 1.2 ml organic solvent mixture (DMSO: acetonitrile=0.5:0.7). The solution was injected into 10 ml deionized water stirred with a magnetic stirring bar. 1.1 ml 10×PBS solution was added to suspend nanoparticles in 1×PBS solution. The nanoparticles were washed using Amicon filter (100k cut-off) twice and resuspended in PBS. Drug loading in nanoparticle formulation was determined by HPLC with a WATERS™ T3 column. Acetonitrile/water was used as the mobile phase, and the wavelength of the UV detector was set at 281 nm.
EE is equal to mass of drug (mg) after wash/mass of drug input (i.e., 2.5 mg) *100%. With EE calculated as such, an EE of over 100% may be obtained on certain occasions due to standard error within the analytical measurement and represents complete encapsulation (i.e., 100% EE).

[4] = study 2, PLA-PEG (A) 10 mg + pGlu(0.6C10)-PEG (C) 10 mg
[5] = study 2, PLA-PEG (A) 10 mg + pGlu-PEG (B) 10 mg
[6] = PNP with PLA-PEG (A) 5 mg + pGlu (D) 5 mg
[7] = PNP with PLA-PEG (A) 5 mg + pGlu(0.6C10) (E) 5 mg
[8] = PNP with PLA-PEG (A) as only polymer, 10 mg polymer
[9] = drug payload only, no polymer (N/A)
[10] = study 1, PLA-PEG (A) 10 mg + pGlu(0.6C10)-PEG (C) 10 mg
[11] = study 1, PLA-PEG (A) 10 mg + pGlu-PEG (B) 10 mg
[12] = study 1, PLA-PEG (A) 20 mg only

| SMILES | Drug loading [2, 4] | Encapsulation efficiency (EE) [2, 4] | Drug loading [2, 5] | Encapsulation efficiency (EE) [2, 5] | Drug loading [3, 6] | Encapsulation efficiency (EE) [3, 6] | Drug loading [3, 7] | Encapsulation efficiency (EE) [3, 7] | Drug loading [3, 8] | Encapsulation efficiency (EE) [3, 8] | Drug loading [3, 9] | Encapsulation efficiency (EE) [3, 9] | Drug loading [2, 10] | Encapsulation efficiency (EE) [2, 10] | Drug loading [2, 11] | Encapsulation efficiency (EE) [2, 11] | Drug loading [2, 12] | Encapsulation efficiency (EE) [2, 12] | also measured |
| --- | --- | --- | --- | --- | --- | --- | --- | --- | --- | --- | --- | --- | --- | --- | --- | --- | --- | --- | --- |
| CN[C@H](CC(C)C)C(=O)N[C@H]1C(=O)N[C@@H](CC(N)=O)C(=O)N[C@H]2C(=O)N[C@H]3C(=O)N[C@H](C(=O)N[C@H](C(=O)O)c4cc(O)cc(O)c4-c4cc3ccc4O)[C@H](O[C@H]3C[C@](C)(N)[C@@H](O)[C@H](C)O3)c3ccc(c(Cl)c3)Oc3cc2cc(c3O[C@@H]2O[C@H](CO)[C@@H](O)[C@H](O)[C@H]2O[C@H]2C[C@](C)(NCc3ccc(-c4ccc(Cl)cc4)cc3)[C@@H](O)[C@H](C)O2)Oc2ccc(cc2Cl)[C@H]1O [Ori, oritavancin] | 13.4% | 68.1% | 10.6% | 41.0% | 8.7% | 39.3% | 12.3% | 60.6% | 2.3% | 9.8% | 0.0% | 0.0% |  |  |  |  |  |  | Accumulation of oritavancin in infected tibia compared to uninfected tibia ([1]; 24 h post-injection): preferential accumulation of oritavancin in the infected tibia; Plasma concentrations of oritavancin ([1]; up to 4 hours post-injection): comparable and lower plasma concentrations of oritavancin; Encapsulation efficiency (EE) ([3]; PNP with PLA-PEG (A) 5 mg + pGlu (D) 5 mg, listed as oritavancin): 39.3%; Encapsulation efficiency (EE) ([3]; PNP with PLA-PEG (A) 5 mg + pGlu(0.6C10) (E) 5 mg, listed as oritavancin): 60.6%; Encapsulation efficiency (EE) ([3]; PNP with PLA-PEG (A) as only polymer, 10 mg polymer, listed as oritavancin): 9.8% |
| CN[C@H](CC(C)C)C(=O)N[C@H]1C(=O)N[C@@H](CC(N)=O)C(=O)N[C@H]2C(=O)N[C@H]3C(=O)N[C@H](C(=O)N[C@H](C(=O)O)c4cc(O)cc(O)c4-c4cc3ccc4O)[C@H](O)c3ccc(c(Cl)c3)Oc3cc2cc(c3O[C@@H]2O[C@H](CO)[C@@H](O)[C@H](O)[C@H]2O[C@H]2C[C@](C)(N)[C@H](O)[C@H](C)O2)Oc2ccc(cc2Cl)[C@H]1O [Vac, vancomycin] | 2.4% | 9.8% | 0.0% | 0.2% | 0.0% | 0.1% | 0.1% | 0.5% | 0.0% | 0.2% | 0.0% | 0.0% | 2.7% | 18.6% | 0.0% | 0.0% | 0.0% | 0.0% | Encapsulation efficiency (EE) ([2]; study 1, PLA-PEG (A) 10 mg + pGlu-PEG (B) 10 mg, listed as vancomycin): 0.0%; Encapsulation efficiency (EE) ([2]; study 1, PLA-PEG (A) 20 mg only, listed as vancomycin): 0.0%; Encapsulation efficiency (EE) ([3]; PNP with PLA-PEG (A) 5 mg + pGlu (D) 5 mg, listed as vancomycin): 0.1%; Encapsulation efficiency (EE) ([3]; PNP with PLA-PEG (A) 5 mg + pGlu(0.6C10) (E) 5 mg, listed as vancomycin): 0.5%; Encapsulation efficiency (EE) ([3]; PNP with PLA-PEG (A) as only polymer, 10 mg polymer, listed as vancomycin): 0.2% |
| CCCCCCCCCCNC(=O)CNC1(C)CC(OC2C(Oc3c4cc5cc3Oc3ccc(cc3Cl)C(O)C3NC(=O)C(NC(=O)C5NC(=O)C(CC(N)=O)NC(=O)C(NC(=O)C(CC(C)C)NC)C(O)c5ccc(c(Cl)c5)O4)c4ccc(O)c(c4)-c4c(O)cc(O)cc4C(C(=O)O)NC3=O)OC(CO)C(O)C2O)OC(C)C1O (stereo not shown) [RV94] | 17.5% | 92.7% | 13.2% | 59.8% | 3.5% | 12.9% | 20.9% | 107.2% | 2.8% | 10.4% | 1.3% | 4.2% | 16.7% | 88.4% | 13.6% | 70.1% | 0.9% | 4.0% |  |
| CCCCCCCCCCNCCNC1(C)CC(OC2C(Oc3c4cc5cc3Oc3ccc(cc3Cl)C(O)C(NC(=O)C(CC(C)C)NC)C(=O)NC(CC(N)=O)C(=O)NC5C(=O)NC3C(=O)NC(C(=O)CC(C(=O)O)c5cc(O)cc(O)c5-c5cc3ccc5O)C(O)c3ccc(c(Cl)c3)O4)OC(CO)C(O)C2O)OC(C)C1O (stereo not shown) [RV40] | 6.4% | 45.5% | 6.7% | 33.2% | 3.1% | 15.0% | 15.0% | 100.7% | 1.9% | 7.0% | 0.0% | 0.0% |  |  |  |  |  |  |  |
